Key:
[1] = Log P by shake flask method; assay type: physicochemical; details: octanol / PBS pH = 7.4, shake flask
Method: Log P is defined as the logarithm of octanol–water partition coefficient. […] Ultraviolet spectrophotometry was applied to determine the concentration of compounds. Log p values were calculated based on the data in triplicate.

AChE = AChE (Rattus norvegicus, UniProt P37136); test: biochemical; details: for Selectivity for AChE: IC50 (BChE)/IC50 (AChE); for IC50: rat brain AChE, Mean ± SD, triplicate
AChE, sequence (P37136 32-614): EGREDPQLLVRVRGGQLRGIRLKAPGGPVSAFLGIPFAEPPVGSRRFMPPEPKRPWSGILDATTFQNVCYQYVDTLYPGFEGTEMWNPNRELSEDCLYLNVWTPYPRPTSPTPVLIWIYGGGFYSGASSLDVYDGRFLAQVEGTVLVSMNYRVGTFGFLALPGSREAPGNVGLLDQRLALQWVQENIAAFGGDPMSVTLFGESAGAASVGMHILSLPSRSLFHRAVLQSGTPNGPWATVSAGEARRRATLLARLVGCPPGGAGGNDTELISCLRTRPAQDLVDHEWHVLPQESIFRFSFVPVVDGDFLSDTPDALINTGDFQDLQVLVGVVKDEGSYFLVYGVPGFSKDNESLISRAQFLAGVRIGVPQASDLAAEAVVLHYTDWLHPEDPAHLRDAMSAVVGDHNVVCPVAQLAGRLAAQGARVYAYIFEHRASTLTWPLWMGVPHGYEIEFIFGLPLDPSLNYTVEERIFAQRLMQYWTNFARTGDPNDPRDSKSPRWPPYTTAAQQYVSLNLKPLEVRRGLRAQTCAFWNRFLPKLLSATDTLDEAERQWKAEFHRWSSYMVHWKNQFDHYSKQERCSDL

BChE = BChE (Rattus norvegicus, UniProt Q9JKC1); test: biochemical; parameters: species or system Sprague–Dawley rat; details: rat serum BChE, Mean ± SD, triplicate
BChE, sequence (Q9JKC1 24-597): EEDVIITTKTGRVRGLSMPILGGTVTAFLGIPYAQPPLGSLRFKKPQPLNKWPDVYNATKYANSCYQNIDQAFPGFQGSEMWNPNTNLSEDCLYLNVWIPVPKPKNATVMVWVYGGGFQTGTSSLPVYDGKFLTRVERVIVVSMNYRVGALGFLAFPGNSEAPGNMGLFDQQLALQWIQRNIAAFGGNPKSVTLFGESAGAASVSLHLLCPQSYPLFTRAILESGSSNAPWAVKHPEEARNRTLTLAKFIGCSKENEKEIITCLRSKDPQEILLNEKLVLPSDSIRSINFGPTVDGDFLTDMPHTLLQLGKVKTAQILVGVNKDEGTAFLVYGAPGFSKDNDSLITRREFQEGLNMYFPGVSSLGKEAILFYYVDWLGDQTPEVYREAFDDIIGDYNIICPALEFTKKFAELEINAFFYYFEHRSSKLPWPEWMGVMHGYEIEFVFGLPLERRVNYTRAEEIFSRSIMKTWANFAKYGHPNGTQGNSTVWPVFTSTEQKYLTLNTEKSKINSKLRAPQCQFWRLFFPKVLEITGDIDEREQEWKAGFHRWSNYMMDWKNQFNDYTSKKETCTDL

[2] = pKa by pH-titration method; assay type: physicochemical; details: read-out: pKa
Method: pKa is determined by pH-titration method according to the report. The titration curve E vs. VT was recorded and pKa value was calculated.

Row | Structure (SMILES) | logP [1] | Selectivity for AChE (AChE) | IC50 (AChE) [µM] | IC50 (BChE) [µM] | pKa [2]
1 | CN(C)CCOc1ccccc1NC(=O)C=Cc1ccccc1 [Compound 4d] | 2.78 | 0.07 | 161 ± 2.19 | 11.2 ± 0.34 | 6.96
2 | CCN(CC)CCOc1ccccc1NC(=O)C=Cc1ccccc1 [Compound 4e] | 2.81 | 0.04 | 197 ± 6.81 | 6.99 ± 0.29 | 7.28
3 | O=C(C=Cc1ccccc1)Nc1ccccc1OCCN1CCCCC1 [Compound 4f] | 2.17 | 0.01 | 141 ± 7.01 | 1.16 ± 0.22 | 6.85
4 | O=C(C=Cc1ccccc1)Nc1ccccc1OCCN1CCCC1 [Compound 4g] | 2.19 | 0.01 | 170 ± 8.49 | 1.56 ± 0.42 | 7.33
5 | CN(C)CCOc1cccc(NC(=O)C=Cc2ccccc2)c1 [Compound 5d] | 0.96 | 1.30 | 20.5 ± 3.13 | 26.5 ± 0.56 | 6.51
6 | CCN(CC)CCOc1cccc(NC(=O)C=Cc2ccccc2)c1 [Compound 5e] | 2.56 | 0.86 | 49.4 ± 1.91 | 42.5 ± 0.67 | 7.16
7 | O=C(C=Cc1ccccc1)Nc1cccc(OCCN2CCCCC2)c1 [Compound 5f] | 1.24 | 0.16 | 20.5 ± 1.01 | 3.26 ± 0.26 | 6.99
8 | O=C(C=Cc1ccccc1)Nc1cccc(OCCN2CCCC2)c1 [Compound 5g] | 2.28 | 1.51 | 8.52 ± 1.23 | 12.9 ± 1.18 | 7.28
9 | CN(C)CCOc1ccc(NC(=O)C=Cc2ccccc2)cc1 [Compound 6d] | 1.54 | 22.8 | 4.98 ± 0.31 | 113 ± 1.36 | 7.18
10 | CCN(CC)CCOc1ccc(NC(=O)C=Cc2ccccc2)cc1 [Compound 6e] | 1.22 | 4.16 | 10.6 ± 0.43 | 44 ± 3.29 | 6.97
11 | O=C(C=Cc1ccccc1)Nc1ccc(OCCN2CCCCC2)cc1 [Compound 6f] | 1.4 |  | 4.35 ± 0.36 | 94.5 ± 8.74 | 7.29
12 | CN(C)CCOc1ccccc1NC(=O)CCc1ccccc1 [Compound 10d] | 2.14 | 0.13 | 285 ± 4.69 | 36.6 ± 1.38 | 7.19
13 | CCN(CC)CCOc1ccccc1NC(=O)CCc1ccccc1 [Compound 10e] | 3.22 |  | > 500 | 40.1 ± 1.29 | 7.23
14 | O=C(CCc1ccccc1)Nc1ccccc1OCCN1CCCCC1 [Compound 10f] | 1.18 | 0.002 | 250 ± 8.21 | 0.59 ± 0.09 | 7.02
15 | O=C(CCc1ccccc1)Nc1ccccc1OCCN1CCCC1 [Compound 10g] | 1.3 | 0.01 | 209 ± 2.33 | 1.87 ± 0.16 | 6.88
16 | CN(C)CCOc1cccc(NC(=O)CCc2ccccc2)c1 [Compound 11d] | 1.19 | 0.26 | 59.2 ± 3.34 | 15.5 ± 1.21 | 6.45
17 | CCN(CC)CCOc1cccc(NC(=O)CCc2ccccc2)c1 [Compound 11e] | 2.23 | 0.08 | 102 ± 3.36 | 8.23 ± 0.59 | 6.51
18 | O=C(CCc1ccccc1)Nc1cccc(OCCN2CCCCC2)c1 [Compound 11f] | 3.22 | 0.93 | 69 ± 2.64 | 64 ± 1.92 | 6.78

Row | Structure (SMILES) | logP [1] | Selectivity for AChE (AChE) | IC50 (AChE) [µM] | IC50 (BChE) [µM] | pKa [2]
19 | O=C(CCc1ccccc1)Nc1cccc(OCCN2CCCC2)c1 [Compound 11g] | 2.58 | 1.43 | 58.6 ± 3.85 | 84 ± 2.12 | 6.45
20 | CN(C)CCOc1ccc(NC(=O)CCc2ccccc2)cc1 [Compound 12d] | 2.44 | 2.82 | 46.8 ± 1.29 | 132 ± 5.21 | 7.26
21 | CCN(CC)CCOc1ccc(NC(=O)CCc2ccccc2)cc1 [Compound 12e] | 2.58 | 2.50 | 84.6 ± 6.1 | 212 ± 4.87 | 6.52
22 | O=C(CCc1ccccc1)Nc1ccc(OCCN2CCCCC2)cc1 [Compound 12f] | 1.82 | 6.60 | 34.3 ± 0.89 | 226 ± 5.78 | 7.13
23 | O=C(CCc1ccccc1)Nc1ccc(OCCN2CCCC2)cc1 [Compound 12g] | 2.26 |  | 24.4 ± 0.76 | 98.5 ± 1.09 | 6.8
24 | C/C=C/C=C/C(=O)Nc1ccccc1OCCN(C)C [Compound 16d] | 0.63 | 1.11 | 30.7 ± 2.34 | 34.1 ± 1.85 | 7.25
25 | C/C=C/C=C/C(=O)Nc1ccccc1OCCN(CC)CC [Compound 16e] | 2.18 |  | > 500 | 91.8 ± 1.45 | 7.53
26 | C/C=C/C=C/C(=O)Nc1ccccc1OCCN1CCCCC1 [Compound 16f] | 0.67 | 0.16 | 170 ± 4.11 | 27.7 ± 1.29 | 6.86
27 | C/C=C/C=C/C(=O)Nc1ccccc1OCCN1CCCC1 [Compound 16g] | 0.97 | 0.08 | 278 ± 4.58 | 21.9 ± 0.99 | 7.32
28 | C/C=C/C=C/C(=O)Nc1cccc(OCCN(C)C)c1 [Compound 17d] | 0.99 | 0.96 | 52.47 ± 0.39 | 50.43 ± 0.46 | 7.23
29 | C/C=C/C=C/C(=O)Nc1cccc(OCCN(CC)CC)c1 [Compound 17e] | 1.72 | 0.81 | 98.7 ± 1.89 | 79.5 ± 1.43 | 7.58
30 | C/C=C/C=C/C(=O)Nc1cccc(OCCN2CCCCC2)c1 [Compound 17f] | 2.23 | 0.76 | 44.2 ± 1.36 | 33.6 ± 1.59 | 7.17
31 | C/C=C/C=C/C(=O)Nc1cccc(OCCN2CCCC2)c1 [Compound 17g] | 1.41 | 1.51 | 18.8 ± 0.63 | 28.5 ± 1.24 | 7.06
32 | C/C=C/C=C/C(=O)Nc1ccc(OCCN(C)C)cc1 [Compound 18d] | 1.79 | 17.5 | 12.6 ± 0.89 | 222 ± 8.63 | 7.21
33 | C/C=C/C=C/C(=O)Nc1ccc(OCCN(CC)CC)cc1 [Compound 18e] | 1.31 | 0.50 | 189 ± 4.55 | 94.5 ± 4.26 | 7.16
34 | C/C=C/C=C/C(=O)Nc1ccc(OCCN2CCCCC2)cc1 [Compound 18f] | 1.61 | 22.1 | 12.3 ± 0.76 | 271 ± 4.56 | 7.06
35 | C/C=C/C=C/C(=O)Nc1ccc(OCCN2CCCC2)cc1 [Compound 18g] | 1.18 | 8.63 | 13.6 ± 1.24 | 118 ± 6.79 | 7.73
36 | CCN(C)C(=O)Oc1cccc([C@H](C)N(C)C)c1 [Rivastigmine, reference compound] | 1.68 |  |  |  | 5.93

Source: article PMC6010128, “Structure–activity relationship investigation of tertiary amine derivatives of cinnamic acid as acetylcholinesterase and butyrylcholinesterase inhibitors: compared with that of phenylpropionic acid, sorbic acid and hexanoic acid” (Journal of Enzyme Inhibition and Medicinal Chemistry, 2018)
